Counter-ions that a name gives are not always drawn.

Assay type in all cases: cell-based
In test [1] the test system is Escherichia coli DH5α. Kind of test: Effect of biological buffers with or without protamine on the growth of Escherichia coli DH5α. As to conditions: buffer without protamine; starting inoculum 10^7 cells; mean of three replicates. As to the method: (§1) All bacterial strains are maintained as frozen stocks at −80° C. in TSB, Luria-Bertani broth.
(§2) Throughout the experiments strains are subcultured every 2 weeks on TSA (tryptic soy agar; 15 g l^−1 agar) or LBA (Luria-Bertani agar; 15 g l^−1 agar) depending upon the type of bacteria and experiment and kept at 4° C. The incubation temperature is 37° C. except for photo-heterotrophic bacteria (30° C.).
(§3) The growth curve is determined by measuring the optical density (OD), growth rate and doubling time. Additionally, the number of colony forming units is determined by counting bacterial spots.
(§4) Bacterial growth is monitored by recording the increase in optical density (OD) at 560 nm in a spectrophotometer (Ultrospec 1000, Pharmacia Biotech, England). Sterile medium is used as reference. […] At given times, 100 μl aliquots of the samples are removed and spread on corresponding agar plates. If necessary, the samples are diluted by factors between 10^2−10^8 to ensure good count ability. Colony forming unit determination (CFU/ml) is carried out in duplicate using a CCD camera module (Sony Corp., Japan) applying the BioProfil Software V 2000.01 (Vilber Lourmat, France).
(§5) A commercially available protamine from Salmon is obtained from Sigma Aldrich (Taufkirchen, Germany). A stock solution is prepared by dissolving protamine in distilled water. The solution is then sterilized with Rotabilo© filter units (0.22 μm; Carl Roth, Karlsruhe, Germany) and stored at −20° C. until use.
Determination of Bactericidal Effect of Biological Buffers With or Without Protamine on Gram-negative Bacteria
(§6) In all experiments the starting inoculum is 10^7 cells. The data shown are average means of three replicates.

Test [2] deals with Micrococcus luteus DSM 348. Nature of the test: Effect of biological buffers with or without protamine on the growth of Micrococcus luteus DSM 348. The following applies: for μ (growth rate): buffer without protamine, pH of 8.0 (FIG. 4), starting inoculum 10^7 cells, mean of three replicates. The method, then: as §1, §2, §3, §4, §5
Determination of Bactericidal Effect of Biological Buffers With or Without Protamine on Gram-positive Bacteria
as §6

For test [3], the system named is Escherichia coli. Nature of the test: Growth of Escherichia coli in the presence of protamine.
Test [4] has as its system Pseudomonas fluorescens. Nature of the test: Protamine tolerance of Pseudomonas fluorescens with a special phenotype.

Turning to `O=C([O-])O.[Na+]` [0.1M NaHCO3, NaHCO3], the “td (doubling time)” value in test [1] stood at 3.01 h. In addition, the entries for the “μ (growth rate)” value in test [1] and in test [2] were 0.230 h⁻¹ and 0 h⁻¹, respectively.
On the same counts, the results for `O=C(O)CC(O)(CC(=O)O)C(=O)O` [0.4M citrate] are 3.75 h, 0.185 h⁻¹ and 0 h⁻¹.
On to lysozyme, for which the “concentration of protamine needed for bacterial death on further addition of lysozyme” value in test [2] (pH of 8.0, citrate + bicarbonate composition with protamine, relative to the amount needed without lysozyme) came to 30%.
In the case of protamine, in test [3], the “protamine concentration at which the organism does not grow” value was 1,5 mg/ml. Moreover, the protamine concentrations tolerated result in test [4] was “more than 40 mg/ml”. Further, the “effect of the composition additionally comprising protamine” value in test [2] (pH of 8.0, citrate + bicarbonate composition) is “bacterial death”.

The values above are taken from US7544483B2, “Method for the production of protamine” (priority 2002, dated 2009).
